Target: T1, BCL6::BCOR (Homo sapiens, UniProt P41182, C67R/C84N/C8Q)
T1 construct: BCL6 (amino acids 5 to 129, with the following changes to the natural protein); made in house; host or cells: E. coli
Test: BCL6::BCOR ULight TR-FRET assay
Format: binding
Text: Biological Methods BCL6::BCOR ULight TR-FRET Assay:
Biotinylated BCL6 protein corresponding to BCL6 (amino acids 5 to 129, with the following changes to the natural protein: C8Q, C67R, C84N) is expressed in E. coli with a carboxy-terminal Avi tag (amino acid sequence […]). The BCOR ULight peptide uses a direct carboxy-terminal ULight tag (PerkinElmer). The sequence of the peptide is CRSEIISTAPSSWVVPGP, with the amino terminus acetylated and the ULight tag attached to the cysteine. Compounds are dispensed onto assay plates (Proxiplate 384 PLUS, white, PerkinElmer) using an Access Labcyte Workstation with the Labcyte Echo 55×from a DMSO solution. For the chosen highest assay concentration of 100 μM, 150 nl of compound solution are transferred from a 10 mM DMSO compound stock solution. A series of 11 concentrations is transferred for each compound at which each concentration is fivefold lower than the previous one. DMSO is added such that every well has a total of 150 nl compound solution. 5 μL of 1 nM BCL6 protein in assay buffer (50 mM HEPES pH 7.3; 125 mM NaCl; 1 mM GSH; 0.01% Triton-X 100; 0.03% BSA) are added to the 150 nl of compounds. After 30 minutes incubation time at room temperature, 10 μL of a mix containing BCOR ULight peptide (100 nM final assay concentration) and Streptavidin-Europium (0.75 nM final assay concentration) are added. Plates are kept at room temperature. After 240 minutes incubation time the TR-FRET signal is measured in a PerkinElmer Envision HTS Multilabel Reader using the TR-FRET LANCE Ultra specs of PerkinElmer. Each plate contains negative controls (diluted DMSO instead of test compound; BCOR peptide and Streptavidin Europium mix with BCL6 protein) and positive controls (diluted DMSO instead of test compound; BCOR peptide and Streptavidin-Europium mix without BCL6 protein). Negative and positive control values are used for normalization.

SMILES | IC50
C[C@@H]1C[C@H](C)CN(c2ncc(F)c(Nc3ccc4c(c3)cc(OCC(=O)O)c(=O)n4C)n2)C1 [Compound I-100] | 12 nM
Cn1c(=O)c(OCC(=O)O)cc2cc(Nc3nc(N4CCCN(c5ccccc5)CC4)ncc3Cl)ccc21 [Compound I-105] | 114 nM
Cn1c(=O)c(OCC(=O)O)cc2cc(Nc3nc(N4CCc5ccccc5CC4)ncc3Cl)ccc21 [Compound I-106] | 210 nM
CCNC(=O)C1CCCN(c2ncc(Cl)c(Nc3ccc4c(c3)cc(OCC(=O)O)c(=O)n4C)n2)C1 (stereo not shown) [Compound I-107] | 10 nM
Cn1c(=O)c(OCC(=O)O)cc2cc(Nc3nc(N4C[C@H]5C[C@@H](C4)c4ccccc45)ncc3Cl)ccc21 [Compound I-108] | 38 nM
Cn1c(=O)c(OCC(=O)O)cc2cc(Nc3nc(N4CCC(c5ccccc5)CC4)ncc3Cl)ccc21 [Compound I-109] | 21 nM
COCCN1CCN(c2ncc(Cl)c(Nc3ccc4c(c3)cc(OCC(=O)O)c(=O)n4C)n2)CC1C (stereo not shown) [Compound I-110] | 17 nM
Cn1c(=O)c(OCC(=O)O)cc2cc(Nc3nc(N4CCC5(CCCCC5)CC4)ncc3Cl)ccc21 [Compound I-111] | 108 nM
Cn1c(=O)c(OCC(=O)O)cc2cc(Nc3nc(N4CCc5[nH]nnc5C4)ncc3Cl)ccc21 [Compound I-116] | 10 nM
C[C@H]1CN(c2ncc(Cl)c(Nc3ccc4c(c3)cc(OCC(=O)O)c(=O)n4C)n2)CCO1 [Compound I-117] | 11 nM
Cn1c(=O)c(OCC(=O)O)cc2cc(Nc3nc(N4CCCC(F)(F)CC4)ncc3Cl)ccc21 [Compound I-118] | 16 nM
CC1CCCN(c2ncc(Cl)c(Nc3ccc4c(c3)cc(OCC(=O)O)c(=O)n4C)n2)C1 (stereo not shown) [Compound I-119] | 13 nM
Cn1c(=O)c(OCC(=O)O)cc2cc(Nc3nc(N4CCC(N5CCOCC5)C4)ncc3Cl)ccc21 (stereo not shown) [Compound I-120] | 11 nM
CC1CCN(c2ncc(Cl)c(Nc3ccc4c(c3)cc(OCC(=O)O)c(=O)n4C)n2)CC1 [Compound I-121] | 10 nM

Further compounds by falling IC50, results first:

IC50 | SMILES
10 nM | Cn1c(=O)c(OCC(=O)O)cc2cc(Nc3nc(N4CCC(Nc5ncccn5)CC4)ncc3Cl)ccc21 [Compound I-101]
10 nM | Cn1c(=O)c(OCC(=O)O)cc2cc(Nc3nc(N4CCC5(CC4)OCCCO5)ncc3Cl)ccc21 [Compound I-103]
10 nM | CCOC(=O)CC1CCCN(c2ncc(Cl)c(Nc3ccc4c(c3)cc(OCC(=O)O)c(=O)n4C)n2)C1 (stereo not shown) [Compound I-104]
9 nM | CC1CN(c2ncc(Cl)c(Nc3ccc4c(c3)cc(OCC(=O)O)c(=O)n4C)n2)CCS1 (stereo not shown) [Compound I-114]
9 nM | Cn1cnc2c1CCN(c1ncc(Cl)c(Nc3ccc4c(c3)cc(OCC(=O)O)c(=O)n4C)n1)C2 [Compound I-115]
7 nM | CNC(=O)COc1cc2cc(Nc3nc(N4C[C@H](C)C[C@H](C)C4)ncc3Cl)cc(OC)c2n(C)c1=O [Compound I-99]
7 nM | Cn1c(=O)c(OCC(=O)O)cc2cc(Nc3nc(N4CCC(C(=O)O)CC4)ncc3Cl)ccc21 [Compound I-102]
7 nM | CCOC1CCCN(c2ncc(Cl)c(Nc3ccc4c(c3)cc(OCC(=O)O)c(=O)n4C)n2)C1 (stereo not shown) [Compound I-112]
7 nM | C#CC1CCN(c2ncc(Cl)c(Nc3ccc4c(c3)cc(OCC(=O)O)c(=O)n4C)n2)CC1 [Compound I-113]
7 nM | CNC(=O)COc1cc2cc(Nc3nc(N4CCCC(CCCCN5CCCC5)C4)ncc3Cl)ccc2n(C)c1=O (stereo not shown) [Compound I-123]
6 nM | CCC1CN(c2ncc(Cl)c(Nc3ccc4c(c3)cc(OCC(=O)NC)c(=O)n4C)n2)CCN1CC(F)F (stereo not shown) [Compound I-122]
4 nM | CNC(=O)COc1cc2cc(Nc3nc(N4CCC(F)(F)CC4)ncc3Cl)cc(OC)c2n(C)c1=O [Compound I-97]
4 nM | CNC(=O)COc1cc2cc(Nc3nc(N4CCC(F)CC4)ncc3Cl)cc(OC)c2n(C)c1=O [Compound I-98]
2 nM | CNC(=O)COc1cc2cc(Nc3nc(N4CCC[C@H](C(=O)O)C4)ncc3Cl)cc(OC)c2n(C)c1=O [Compound I-96]

Reference: patent US11001570B2, “6-amino-quinolinone compounds and derivatives as BCL6 inhibitors” (Boehringer Ingelheim International GmbH, priority 2016, dated 2021)
